The record followed here is patent US20170298056A1, “SMALL MOLECULE INHIBITORS OF HIV-1 ENTRY AND METHODS OF USE THEREOF” (Dana-Farber Cancer Institute, Inc., priority 2014, published 2017).

Structures are written as SMILES.

Data set [1] concerns JR-FL and KB9 Env chimeras. Description: Viral infection assay, JR-FL/KB9 Env chimeras. It counts as cell-based, HIV-1. On the procedure: (§1) Production of recombinant HIV-1 expressing luciferase. […] After 48 hours, the supernatant was collected, buffered with 50 mM Hepes pH 7.4 (final concentration) and centrifuged for 5 minutes at 750×g and 4° C. The virus-containing supernatant was used directly or frozen at −80° C.
(§2) Viral infection assay. Each test compound was serially diluted in DMSO in a 96-well B&W isoplate (PerkinElmer, Boston, Mass.) using an HP D300 Digital Dispenser, to a final volume of 450 nl. DMSO was used as a control. Viruses pseudotyped with a specific Env were added to each well and incubated briefly at room temperature. Cf2Th-CD4/CCR5 cells were detached with StemPro Accutase Cell Dissociation Reagent (Invitrogen, cat #A11105-01), washed once, and 5000 cells were added to each well. […] Following incubation, the medium was aspirated and cells were lysed with 30 μl of Passive Lysis Buffer (Promega, cat #E1941). The activity of the firefly luciferase, which was used as a reporter protein in the system, was measured with a Centro LB 960 luminometer (Berthold Technologies, Oak Ridge, Tenn.). One hundred microliters of assay buffer (15 mM MgSO4, 15 mM KH2PO4/K2HPO4 pH 7.8, 1 mM ATP and 1 mM DTT) was injected to each well, followed by a 50 μl injection of 1 mM Dluciferin potassium salt (BD Pharmingen, San Jose, Calif.); luminescence was measured for 2 sec. Infection of PBMC was done as above, but 20,000-40,000 cells/well and viruses concentrated by ultracentrifugation were used. After four hours of incubation with viruses, the cells were centrifuged at 200×g for 6 minutes at 4° C., resuspended in 100 μl RPMI-PBMC medium and incubated at 37° C. for an additional 36-40 hours (total 40-44 hours). Supernatant was removed after centrifugation at 400×g for 5 minutes and cells were processed to detect luciferase activity, as described above.

A further data set deals with HIV-1HXBc2. Briefly: Cold inactivation of recombinant virus. It counts as cell-based. The conditions noted are these: in the presence of 18A vs DMSO or unrelated compounds. On the procedure: For washout experiments, different concentrations of 18A were incubated with the recombinant viruses at 37° C. for 20 minutes. The viruses were laid on a 20% sucrose cushion and ultracentrifuged at 30,000 RPM in an SW55 rotor for 1.5 hours at 4° C. After the supernatant was aspirated, viruses were suspended in 500-1000 μl medium and 90 μl of the virus suspension was used to infect 5000 Cf2Th-CD4/CCR5 cells (5 replicates). The cells were incubated for 48 hours and processed as described above. Sensitivity of recombinant viruses to cold inactivation was measured.

In the next data set the test system is HIV-1MN27. Briefly: Viral infection assay, CXCR4-tropic virus, Cf2Th-CD4/CXCR4 cells. It counts as cell-based. The conditions noted are these: HIV-1MN27, Cf2Th cells expressing CD4 and CXCR4.
Data set [2] concerns cell-surface HIV-1JR-FL WTKA Env. Description: Binding of 17b, 19b, 2G12, PGT121 antibodies to cell-surface Env (flow cytometry). On the procedure: Flow cytometry. […] After 48-72 hours, cells were detached with 5 mM EDTA/PBS and between 0.5-1 million cells were briefly incubated with various concentrations of 18A and then with or without the indicated concentrations of sCD4. C34-Ig (at a final concentration of 20 μg/ml) or a specified antibody (at final concentration of 1 μg/ml) was added to the cells. […] Cells were washed twice and analyzed with a BD FACSCanto II flow cytometer (BD Biosciences). For analysis of resistant mutants (FIG. 5e-g), the measurements were normalized for the level of sCD4 binding of each mutant, and the response of each mutant was further normalized to that of the wild-type HIV-1JR-FL E168K+N188AΔCT Env (herein designated WTKA). […] The sCD4 IC50/sCD4 binding ratio (FIGS. 4c and e) was calculated as follows. Binding of sCD4 to different envelope mutants was measured by flow cytometry and normalized first to 2G12 binding to account for potentially different Env expression levels, and then to sCD4 binding to the wild-type HIV-1JR-FL Env. The IC50 of sCD4 for inhibition of virus infection by each mutant Env was divided by the normalized sCD4 binding to Env-expressing cells to calculate the sCD4 IC50/sCD4 binding value.
A general note: Flow cytometry measures light scatter and fluorescence of single cells or particles in a stream.

A further data set concerns SIVmac239. Briefly: Viral infection assay, SIV Env. It counts as cell-based. Particulars: virus with SIVmac239 Env. Here is the method:
as §1
as §2, with “Infection of PBMC was done as above, but 20,000-40,000 cells/well and viruses concentrated by ultracentrifugation were used. After four hours of incubation with viruses, the cells were centrifuged at 200×g for 6 minutes at 4° C., resuspended in 100 μl RPMI-PBMC medium and incubated at 37° C. for an additional 36-40 hours (total 40-44 hours). Supernatant was removed after centrifugation at 400×g for 5 minutes and cells were processed to detect luciferase activity, as described above.” left out

The subject of another data set is PBMC. Description: Viability assay (CellTiterGlo), PBMC. Particulars: human PBMC, range of tested concentrations. It counts as cell-based. Here is the method: Viability Assay. As part of the secondary screen, cells were incubated for ˜20 hours in 384-well plates in a final volume of 45 μl growth medium at 37° C. The plate was equilibrated to room temperature, 15 μl of CellTiterGlo (Promega) was added to each well and luminescence was measured as described above. The viability assay with 18A was done in parallel to the viral infection assay for the same length of time. 18A was diluted using an HP D300 Digital Dispenser in a 96-well B&W isoplate and cells were added. After incubation of 26-30 hours (Cf2Th cells) or 40-44 hours (PBMC). 30 μl (Cf2Th cells) or 100 μl (PBMC) of CellTiterGlo was added and luminescence was measured as described above.
(In general: In ATP-based viability assays light output follows the ATP content of the culture.)

Setting [3] is: Env with KB9 gp120 and JR-FL gp41.

In the case of `O=C(N/N=C/c1ccc(O)cc1)Nc1cccc2nsnc12` [Compound 18A], in data set [1] (Env with JR-FL gp120 and KB9 gp41), the sensitivity to inhibition result is “nearly as sensitive as the parental JR-FL Env”. In data set [1] (setting [3]), the “fold more sensitive than parental KB9 Env” value was 2 fold and the “fold resistance relative to JR-FL Env” value was “about 5 fold”. Besides, the sensitivity to inhibition entry in data set [1] (major variable loops of JR-FL gp120 grafted onto KB9 Env) is “nearly as sensitive to 18A inhibition as JR-FL”. In addition, the “sensitivity of virus to cold inactivation” value in the data set with HIV-1HXBc2 is recorded as “decreased sensitivity to cold inactivation”. In addition, in the data set on HIV-1MN27, the IC50 (in general, the concentration that inhibits the measured activity by half) was around 25 µM. In addition, the “binding of 19b and 2G12, sCD4-induced decrease of PGT121 binding” value in data set [2] is “No significant effect”. Moreover, the “17b binding to cell surface-expressed Env trimer” value in data set [2] (in the presence of 18A, no sCD4) is reported as “reduction in 17b binding”. Also, the inhibition of infection entry in the data set with SIVmac239 is “significantly less potent”. Further, the “effect on viability of the cells” value in the data set with PBMC was “No significant effect”.
